Test results: patent publication US20200347043A1, “MODULATORS OF THE INTEGRATED STRESS PATHWAY” (Calico Life Sciences LLC, priority 2019, published 2020)

system: HEK293T cells carrying the ATF4 luciferase reporter; test: ATF4-Luc assay (in vitro model of VWMD); assay type: cell-based, human; conditions: Homo sapiens, HEK-293T, 1 μg/mL tunicamycin, 7 hours, One Glo luminescence
How it was run: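 Tunicamycin (1 μg/mL) stress with co-added compound for 7 hours in HEK293T cells stably carrying an ATF4 5′-UTR–luciferase reporter. EC50 values come from the luminescent signal (One Glo).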

**Q.** For `O=C(NC12CC(c3cnn(-c4ccc(Cl)cc4)c3)(C1)C2)[C@@H]1C[C@@H](O)c2cc(Cl)ccc2O1` [Compound 265, (2S,4R)-6-chloro-N-{3-[1-(4-chlorophenyl)-1H-pyrazol-4-yl]bicyclo[1.1.1]pentan-1-yl}-4-hydroxy-3,4-dihydro-2H-1-benzopyran-2-carboxamide], which EC50 is on record?
**A.** The EC50 was 10 to 50 nM.

**Q.** For `O=C(NC12CC(c3cc([C@H]4C[C@@H](OC(F)(F)F)C4)no3)(C1)C2)[C@H]1C[C@@H](O)c2cc(Cl)ccc2O1` [Compound 266, (2R,4R)-6-chloro-4-hydroxy-N-(3-{3-[cis-3-(trifluoromethoxy)cyclobutyl]-1,2-oxazol-5-yl}bicyclo[1.1.1]pentan-1-yl)-3,4-dihydro-2H-1-benzopyran-2-carboxamide], which EC50 is on record?
**A.** Its EC50 is 10 to 50 nM.

**Q.** With `O=C(NC12CC(N3CC([C@H]4C[C@@H](OC(F)(F)F)C4)OC3=O)(C1)C2)[C@H]1C[C@@H](O)c2cc(Cl)ccc2O1` (stereo partly drawn) [Compound 267, (2R,4R)-6-chloro-4-hydroxy-N-(3-{2-oxo-5-[cis-3-(trifluoromethoxy)cyclobutyl]-1,3-oxazolidin-3-yl}bicyclo[1.1.1]pentan-1-yl)-3,4-dihydro-2H-1-benzopyran-2-carboxamide] as the molecule, how does the EC50 read?
**A.** The EC50 was 50 to 250 nM.

**Q.** With `O=C(NC12CC(c3cc([C@H]4C[C@@H](OC(F)(F)F)C4)no3)(C1)C2)[C@@H]1C[C@@H](O)c2cc(Cl)ccc2O1` [Compound 268, (2S,4R)-6-chloro-4-hydroxy-N-(3-{3-[cis-3-(trifluoromethoxy)cyclobutyl]-1,2-oxazol-5-yl}bicyclo[1.1.1]pentan-1-yl)-3,4-dihydro-2H-1-benzopyran-2-carboxamide] as the molecule, how does the EC50 read?
**A.** The EC50 was 50 to 250 nM.

**Q.** Which EC50 does the source give for `O=C(NC12CC(N3CC([C@H]4C[C@@H](OC(F)(F)F)C4)OC3=O)(C1)C2)[C@@H]1C[C@@H](O)c2cc(Cl)ccc2O1` (stereo partly drawn) [Compound 269, (2S,4R)-6-chloro-4-hydroxy-N-(3-{2-oxo-5-[cis-3-(trifluoromethoxy)cyclobutyl]-1,3-oxazolidin-3-yl}bicyclo[1.1.1]pentan-1-yl)-3,4-dihydro-2H-1-benzopyran-2-carboxamide] here?
**A.** The EC50 was 250 to 500 nM.

**Q.** How did the EC50 turn out when `O=C(NC12CC(c3ncc(-c4ccc(Cl)c(F)c4)o3)(C1)C2)[C@H]1C[C@@H](O)c2cc(Cl)ccc2O1` [Compound 270, (2R,4R)-6-chloro-N-{3-[5-(4-chloro-3-fluorophenyl)-1,3-oxazol-2-yl]bicyclo[1.1.1]pentan-1-yl}-4-hydroxy-3,4-dihydro-2H-1-benzopyran-2-carboxamide] was run?
**A.** The EC50 was under 10 nM.

**Q.** With `O=C(NC12CC(c3ncc(-c4ccc(Cl)c(F)c4)o3)(C1)C2)[C@@H]1C[C@@H](O)c2cc(Cl)ccc2O1` [Compound 271, (2S,4R)-6-chloro-N-{3-[5-(4-chloro-3-fluorophenyl)-1,3-oxazol-2-yl]bicyclo[1.1.1]pentan-1-yl}-4-hydroxy-3,4-dihydro-2H-1-benzopyran-2-carboxamide] as the molecule, how does the EC50 read?
**A.** Its EC50 is 10 to 50 nM.

**Q.** `O=C(NC12CC(c3csc(-c4ccc(Cl)cc4)n3)(C1)C2)[C@H]1C[C@@H](O)c2cc(Cl)ccc2O1` [Compound 272, (2R,4R)-6-chloro-N-{3-[2-(4-chlorophenyl)-1,3-thiazol-4-yl]bicyclo[1.1.1]pentan-1-yl}-4-hydroxy-3,4-dihydro-2H-1-benzopyran-2-carboxamide] was tested. Which EC50 did it give?
**A.** Its EC50 is 10 to 50 nM.

**Q.** How did the EC50 turn out when `O=C(NC12CC(c3csc(-c4ccc(Cl)cc4)n3)(C1)C2)[C@@H]1C[C@@H](O)c2cc(Cl)ccc2O1` [Compound 273, (2S,4R)-6-chloro-N-{3-[2-(4-chlorophenyl)-1,3-thiazol-4-yl]bicyclo[11.11]pentan-1-yl}-4-hydroxy-3,4-dihydro-2H-1-benzopyran-2-carboxamide] was run?
**A.** The EC50 was 50 to 250 nM.

**Q.** With `Cc1nc(C23CC(NC(=O)[C@H]4C[C@@H](O)c5cc(Cl)ccc5O4)(C2)C3)oc1-c1ccc(Cl)cc1` [Compound 274, (2R,4R)-6-chloro-N-{3-[5-(4-chlorophenyl)-4-methyl-1,3-oxazol-2-yl]bicyclo[1.1.1]pentan-1-yl}-4-hydroxy-3,4-dihydro-2H-1-benzopyran-2-carboxamide] as the molecule, how does the EC50 read?
**A.** The EC50 was 10 to 50 nM.

**Q.** `Cc1nc(C23CC(NC(=O)[C@@H]4C[C@@H](O)c5cc(Cl)ccc5O4)(C2)C3)oc1-c1ccc(Cl)cc1` [Compound 275, (2S,4R)-6-chloro-N-{3-[5-(4-chlorophenyl)-4-methyl-1,3-oxazol-2-yl]bicyclo[1.1.1]pentan-1-yl}-4-hydroxy-3,4-dihydro-2H-1-benzopyran-2-carboxamide] was tested. Which EC50 did it give?
**A.** The EC50 was 50 to 250 nM.

**Q.** With `O=C(CO[C@H]1C[C@@H](OC(F)(F)F)C1)NC12CCC(NC(=O)[C@@H]3C[C@H](O)c4cc(Cl)ccc4O3)(CC1)C[C@@H]2O` [Compound 276, (2S,4S)-6-chloro-4-hydroxy-N-[(3S)-3-hydroxy-4-(2-{[cis-3-(trifluoromethoxy)cyclobutyl]oxy}acetamido)bicyclo[2.2.2]octan-1-yl]-3,4-dihydro-2H-1-benzopyran-2-carboxamide] as the molecule, how does the EC50 read?
**A.** Its EC50 is under 10 nM.

**Q.** How did the EC50 turn out when `O=C(NC12CC(N3CC(c4ccc(Cl)cc4)OC3=O)(C1)C2)[C@H]1C[C@@H](O)c2cc(Cl)ccc2O1` (stereo partly drawn) [Compound 277, (2R,4R)-6-chloro-N-{3-[5-(4-chlorophenyl)-2-oxo-1,3-oxazolidin-3-yl]bicyclo[1.1.1]pentan-1-yl}-4-hydroxy-3,4-dihydro-2H-1-benzopyran-2-carboxamide] was run?
**A.** Its EC50 is 50 to 250 nM.

**Q.** How did the EC50 turn out when `O=C(NC12CC(N3CC(c4ccc(Cl)cc4)OC3=O)(C1)C2)[C@@H]1C[C@@H](O)c2cc(Cl)ccc2O1` (stereo partly drawn) [Compound 278, (2S,4R)-6-chloro-N-{3-[5-(4-chlorophenyl)-2-oxo-1,3-oxazolidin-3-yl]bicyclo[1.1.1]pentan-1-yl}-4-hydroxy-3,4-dihydro-2H-1-benzopyran-2-carboxamide] was run?
**A.** Its EC50 is 500 to 2000 nM.

**Q.** With `O=C(NC12CC(c3csc([C@H]4C[C@@H](OC(F)(F)F)C4)n3)(C1)C2)[C@H]1C[C@@H](O)c2cc(Cl)ccc2O1` [Compound 280, (2R,4R)-6-chloro-4-hydroxy-N-(3-{2-[cis-3-(trifluoromethoxy)cyclobutyl]-1,3-thiazol-4-yl}bicyclo[1.1.1]pentan-1-yl)-3,4-dihydro-2H-1-benzopyran-2-carboxamide] as the molecule, how does the EC50 read?
**A.** The EC50 was 50 to 250 nM.

**Q.** How did the EC50 turn out when `O=C(NC12CC(n3cnc(-c4ccc(Cl)cc4)c3)(C1)C2)[C@H]1C[C@@H](O)c2cc(Cl)ccc2O1` [Compound 281, (2R,4R)-6-chloro-N-{3-[4-(4-chlorophenyl)-1H-imidazol-1-yl]bicyclo[1.1.1]pentan-1-yl}-4-hydroxy-3,4-dihydro-2H-1-benzopyran-2-carboxamide] was run?
**A.** Its EC50 is under 10 nM.

**Q.** Which EC50 does the source give for `O=C(NC12CC(n3cnc(-c4ccc(Cl)c(F)c4)c3)(C1)C2)[C@H]1C[C@@H](O)c2cc(Cl)ccc2O1` [Compound 282, (2R,4R)-6-chloro-N-{3-[4-(4-chloro-3-fluorophenyl)-1H-imidazol-1-yl]bicyclo[1.1.1]pentan-1-yl}-4-hydroxy-3,4-dihydro-2H-1-benzopyran-2-carboxamide] here?
**A.** Its EC50 is under 10 nM.

**Q.** With `O=C(NC12CC(c3cc([C@H]4C[C@@H](OC(F)(F)F)C4)on3)(C1)C2)[C@@H]1C[C@@H](O)c2cc(Cl)ccc2O1` [Compound 283, (2S,4R)-6-chloro-4-hydroxy-N-(3-{5-[cis-3-(trifluoromethoxy)cyclobutyl]-1,2-oxazol-3-yl}bicyclo[1.1.1]pentan-1-yl)-3,4-dihydro-2H-1-benzopyran-2-carboxamide] as the molecule, how does the EC50 read?
**A.** The EC50 was 50 to 250 nM.

**Q.** For `O=C(NC12CC(c3cc([C@H]4C[C@H](OC(F)(F)F)C4)no3)(C1)C2)[C@H]1C[C@@H](O)c2cc(Cl)ccc2O1` [Compound 284, (2R,4R)-6-chloro-4-hydroxy-N-(3-{3-[trans-3-(trifluoromethoxy)cyclobutyl]-1,2-oxazol-5-yl}bicyclo[1.1.1]pentan-1-yl)-3,4-dihydro-2H-1-benzopyran-2-carboxamide], which EC50 is on record?
**A.** The EC50 was 50 to 250 nM.

**Q.** How did the EC50 turn out when `O=C(NC12CC(NC(=O)[C@H]3C[C@@H](O)c4cc(Cl)ccc4O3)(C1)C2)c1cnc(-c2ccccc2)o1` [Compound 285, N-(3-{[(2R,4R)-6-chloro-4-hydroxy-3,4-dihydro-2H-1-benzopyran-2-carbonyl]amino}bicyclo[11.1]pentan-1-yl)-2-phenyl-1,3-oxazole-5-carboxamide] was run?
**A.** The EC50 was under 10 nM.

**Q.** For `N#C[C@H]1C[C@@H](Oc2nc(C34CC(NC(=O)[C@H]5C[C@@H](O)c6cc(Cl)ccc6O5)(C3)C4)cs2)C1` [Compound 286, (2R,4R)-6-chloro-N-[3-(2-{[cis-3-cyanocyclobutyl]oxy}-1,3-thiazol-4-yl)bicyclo[1.1.1]pentan-1-yl]-4-hydroxy-3,4-dihydro-2H-1-benzopyran-2-carboxamide], which EC50 is on record?
**A.** Its EC50 is 500 to 2000 nM.

**Q.** `O=C(NC12CC(n3cnc([C@H]4C[C@@H](OC(F)(F)F)C4)c3)(C1)C2)[C@H]1C[C@@H](O)c2cc(Cl)ccc2O1` [Compound 287, (2R,4R)-6-chloro-4-hydroxy-N-(3-{4-[cis-3-(trifluoromethoxy)cyclobutyl]-1H-imidazol-1-yl}bicyclo[1.1.1]pentan-1-yl)-3,4-dihydro-2H-1-benzopyran-2-carboxamide] was tested. Which EC50 did it give?
**A.** The EC50 was under 10 nM.

**Q.** How did the EC50 turn out when `O=C(NC12CC(c3ncc([C@H]4C[C@@H](OC(F)(F)F)C4)o3)(C1)C2)[C@H]1C[C@@H](O)c2cc(Cl)ccc2O1` [Compound 288, (2R,4R)-6-chloro-4-hydroxy-N-(3-{5-[cis-3-(trifluoromethoxy)cyclobutyl]-1,3-oxazol-2-yl}bicyclo[1.1.1]pentan-1-yl)-3,4-dihydro-2H-1-benzopyran-2-carboxamide] was run?
**A.** Its EC50 is 10 to 50 nM.

**Q.** With `O=C(NC12CC(c3ncc([C@H]4C[C@@H](OC(F)(F)F)C4)[nH]3)(C1)C2)[C@H]1C[C@@H](O)c2cc(Cl)ccc2O1` [Compound 289, (2R,4R)-6-chloro-4-hydroxy-N-(3-{5-[cis-3-(trifluoromethoxy)cyclobutyl]-1H-imidazol-2-yl}bicyclo[1.1.1]pentan-1-yl)-3,4-dihydro-2H-1-benzopyran-2-carboxamide] as the molecule, how does the EC50 read?
**A.** Its EC50 is 10 to 50 nM.

**Q.** For `O=C(NC12CC(n3cc(C4CCC4)cn3)(C1)C2)[C@H]1C[C@@H](O)c2cc(Cl)ccc2O1` [Compound 290, (2R,4R)-6-chloro-N-[3-(4-cyclobutyl-1H-pyrazol-1-yl)bicyclo[1.1.1]pentan-1-yl]-4-hydroxy-3,4-dihydro-2H-1-benzopyran-2-carboxamide], which EC50 is on record?
**A.** Its EC50 is 50 to 250 nM.
